From patent US10017481B2, “Conformationally constrained, fully synthetic macrocyclic compounds” (POLYPHOR AG, priority 2012, dated 2018)

Experiments:
[1] = molecular target: T1, Thyrotropin-releasing hormone receptor (TRH receptor) (Homo sapiens, UniProt P34981); assay: Ca2+ flux (FLIPR) assay, TRH receptor, agonist/antagonist mode; type: cell-based; details: antagonist mode
T1 construct: expressed in transfected cells; host or cells: Ca2+ optimized hematopoietic cell lines (rat)
T1 sequence (P34981 1-398): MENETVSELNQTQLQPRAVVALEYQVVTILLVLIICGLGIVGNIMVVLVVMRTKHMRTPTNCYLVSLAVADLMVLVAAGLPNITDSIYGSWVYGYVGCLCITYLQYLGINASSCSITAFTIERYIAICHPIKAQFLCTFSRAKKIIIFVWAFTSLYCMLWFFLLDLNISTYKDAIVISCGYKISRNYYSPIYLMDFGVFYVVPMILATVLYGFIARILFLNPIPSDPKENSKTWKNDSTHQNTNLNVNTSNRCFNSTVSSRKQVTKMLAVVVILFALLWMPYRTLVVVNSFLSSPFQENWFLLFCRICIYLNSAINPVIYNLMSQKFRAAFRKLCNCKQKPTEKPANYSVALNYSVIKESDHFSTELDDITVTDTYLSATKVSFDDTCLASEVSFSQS
Procedure: Biological and Pharmacological Methods 1. Ca^2+ Flux Assays for the GPCRs Oxytocin Receptor (OT Receptor), Thyrotropin-Releasing Hormone Receptor (TRH Receptor) and Bombesin Receptor Subtype 3 (BB3 Receptor)
Assays were performed on a FLIPR^TETRA fluorometric imaging plate reader (Molecular Devices) with ScreenWorks Version 2 (Molecular Devices) as device operating and data analysis software.
Dose dependent agonist and antagonist activities were determined. Percentage activation and percentage inhibition values were determined.
Percentage activation was determined upon initial addition of the sample compounds followed by 10 minutes' incubation at 25° C. Following compound incubation, reference agonists were added at EC80 to determine percentage inhibition.
Reference agonists were purchased from reputable commercial vendors and prepared according to each ligand's specifications. All handling of ligands were done to ensure proper control throughout the experiments.
Example compounds were weighed on a Microbalance (Mettler MX5) and dissolved in 100% DMSO to a final concentration of 2.5 mM and subsequently diluted into the assay buffer.
The assay buffer was a supplemented HBSS (Hank's Balanced Salt Solution). HBSS was supplemented with 20 mM HEPES (4-(2-hydroxyethyl)-piperazin-1-ethansulfonic acid) and 2.5 mM Probenecid (Sigma P8761).
GPCR assays were performed using Ca^2+ optimized hematopoietic cell lines (rat) with cultures never exceeding 90% confluency. Cells were harvested and seeded (from cultures at less than 90% confluency) at 50000 cells/well for a 96-well plate (12500 cells/well for 384). After seeding, the assay plates were incubated for 45 minutes at room temperature. After room temperature incubation, the assay plates were incubated at 37° C. 5% CO2 for 24 hours prior to assaying.
All GPCR assays were performed using Fluo-8 Ca^2+ dye.
Ca^2+ dye was prepared at 1× dye concentration in GPCR assay buffer. After 24 hours of incubation, cells were washed with GPCR assay buffer, and then Ca^2+-dye (100 μL/well) was added.
The plates were incubated for 90 minutes at 30° C. 5% CO2 prior to FLIPR assay.
Compound plates were prepared to add 50 μL/well during the agonist assay mode. During the FLIPR assay, 50 μL/well from the compound plate was diluted 3-fold into the existing 100 μL/well from the dye loading step. Therefore all compounds were prepared as 3× the final concentration desired in the assay.
After completion of the first single addition assay run, assay plate was removed from the FLIPR Tetra and placed at 25° C. for 7 minutes before antagonist assay.
Using the EC80 values determined during the agonist assay, all pre-incubated sample compound and reference antagonist (if applicable) wells were stimulated at the EC80 of the reference agonist. As reference ligands for these assays their obvious natural ligands oxytocin (OT), thyrotropin-releasing hormone (TRH) and bombesin (6-14) [BN(6-14)] were used.
After the addition of the reference agonist fluorescence was monitored for 180 sec using FLIPR Tetra.
From the FLIPR data, with negative control correction enabled, the maximum statistic for each well was exported and percentage activation relative to Emax control was calculated.

[2] = molecular target: T2, human leukotriene B4 receptor (LTB4R) (Homo sapiens, UniProt Q15722); assay: Human LTB4 receptor cell-based assay (CHO mito-i-Photina, flash luminescence); details: antagonist mode
T2 construct: host or cells: CHO mito-i-Photina cells
Source text: 3. Human LTB4 Receptor Cell-Based Assay
CHO mito-i-Photina® cells (Axxam SpA) stably expressing the human leukotriene B4 receptor (LTB4R) were used for monitoring activation of the target LTB4R, a GPCR (Gαq), by measuring the flash luminescence of Ca^2+ sensitive photoprotein as reporter system with FLIPR^TETRA screening instrumentation (Molecular Devices) upgraded with an ICCD Camera (MDC). For data quality check and data analysis a Genedata Screener 10.0.3 was used, and for curve fitting of reference agonist and antagonist GraphPad Prism Software.
The reference agonist LTB4 and antagonist U-75302 were purchased from reputable commercial vendors and prepared according to each ligand's specifications. All handling of ligands were done to ensure proper control throughout the experiments.
The steps of the implemented workflow and data analysis are mainly as follows:
mito-1-Photina cells are seeded (10000 c/w in 384 MTP; in complete medium 25 μL/well) for 24 hours, removed from the incubator, equilibrated at room temperature for 1 h, freed from the growth medium, loaded with 30 μL/well of Tyrode's buffer containing 10 μM coelenterazine, and incubated for 3 hours at rt.
All compounds were tested at 10 μM with triplicate data points.
After incubation, the volume in all the wells is flattened to 20 μL by aspiration with CyBi®-Vario pipettor. The First Injection (10 μL of test compounds or reference antagonist U-75302 in Tyrode's buffer+DMSO 0.5%) is performed by the FLIPR^TETRA and the kinetic response is monitored over a period of 120 seconds. Incubation at rt for 10 min. is followed by the Second Injection (15 μL of LTB4 at EC80 in Tyrode's buffer) and monitoring of the kinetic response over a period of 120 seconds.
The possible kinetic response is divided into two distinct phases: Monitoring the kinetic response after the First Injection is indicated as Compound Addition (CA) and measures the agonistic activity of compounds; monitoring the kinetic response after the Second Injection is indicated as Target Activation (TA) and measures the antagonistic activity of a compound.
The activity determination (IC50 determination) experiment is performed using LTB4 as agonist (100 nM corresponding to EC80). Selected compound are tested in 8 doses intraplate dose response with quadruplicate data points.

[3] = Metabolic stability assay, CD-1 mouse microsomes; type: in vitro ADME; details: CD-1 mouse microsomes, 10 μM, 37° C.
Summary of the method: (§1)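 Pooled human (50 donors, mixed gender) or CD-1 mouse microsomes at 1 mg/mL protein, 10 μM compound, 100 mM potassium phosphate with NADPH-regenerating system, 37 °C in duplicate. Samples at 0, 5, 10, 20, 60 min analysed by HPLC/MS/MS; turnover as % of 0-min value and T½ (min) calculated.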

[4] = Metabolic stability assay, human liver microsomes; type: in vitro ADME; details: human microsomes, 10 μM, 37° C.
Summary of the method: as §1

[5] = Plasma stability assay, human plasma; type: in vitro ADME
Summary of the method: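 Compounds at 10 μM were incubated at 37 °C in triplicate in sodium citrate-stabilized plasma (human, or pooled mixed-gender CD-1 mouse). Samples taken at 0–240 min were acetonitrile-quenched and analyzed by HPLC/MS/MS. Remaining peak area as % of t0 gave endpoint stability (%) and half-life (min).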

T2 sequence (Q15722 whole entry): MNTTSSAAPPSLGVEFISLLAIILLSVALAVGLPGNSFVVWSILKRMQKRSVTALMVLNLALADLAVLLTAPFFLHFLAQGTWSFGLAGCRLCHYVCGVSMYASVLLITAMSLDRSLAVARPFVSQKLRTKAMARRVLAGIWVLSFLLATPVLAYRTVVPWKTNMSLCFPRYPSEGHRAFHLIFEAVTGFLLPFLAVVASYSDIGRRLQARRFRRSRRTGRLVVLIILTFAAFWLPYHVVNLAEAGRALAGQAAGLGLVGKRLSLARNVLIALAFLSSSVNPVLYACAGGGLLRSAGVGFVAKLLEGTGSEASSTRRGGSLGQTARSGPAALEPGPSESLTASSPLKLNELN

| Structure (SMILES) | inhibition at 10 µM [1] | IC50 [2] | inhibition at 10 µM [2] | other results |
| --- | --- | --- | --- | --- |
| O=C(CN1CCCC1)N[C@H]1C[C@H]2COc3cccc(c3)-c3ccccc3C(=O)NCC[C@@H](NC(=O)Cc3cccc4ccccc34)C(=O)N2C1 [Ex. 7, N-[(12R,16S,18S)-8,13-dioxo-16-{[2-(1-pyrrolidinyl)acetyl]amino}-20-oxa-9,14-diazatetracyclo[19.3.1.0^2,7.0^14,18]pentacosa-1(25),2,4,6,21,23-hexaen-12-yl]-2-(1-naphthyl)acetamide] | 91% |  |  | IC50 [1]: 1.4 µM |
| O=C(N[C@@H]1CCNC(=O)c2ccccc2-c2cccc(c2)OC[C@@H]2C[C@H](NC(=O)Oc3ccccc3)CN2C1=O)OCc1ccccc1 [Ex. 14] |  | 39.4 µM | 46% |  |
| COc1ccc2c(c1)-c1cccc(c1)C(=O)N(C)[C@H](C(=O)NCc1cccnc1)CCC(=O)N[C@H](C)CO2 [Ex. 50, (10R,15S)-4-methoxy-10,16-dimethyl-12,17-dioxo-N-(3-pyridinylmethyl)-8-oxa-11,16-diazatricyclo[16.3.1.0^2,7]docosa-1(22),2,4,6,18,20-hexaene-15-carboxamide] |  | 1.97 µM | 100% | Metabolic Stability 60 min mouse/(rat) [% remain.] ([3]; 60 min): 34 % remain.; half-life at 10 μM ([3]; both sexes, 1 mg/ml protein, read-out: Metabolic Stability T ½ [min] mouse/(rat)): 40 min; half-life at 10 μM ([4]; both sexes, liver microsomes, 1 mg/ml protein, read-out: Metabolic Stability T ½ [min] hum): > 60 min; Metabolic Stability 60 min hum [% remain.] ([4]; 60 min): 53 % remain.; Plasma Stability 240 min hum [% remain.] ([5]; human plasma, 240 min, 10 μM, 37° C.): 100 % remain.; half-life at 10 μM ([5]; human, plasma): > 240 min |
| C[C@@H]1COc2cccc(c2)-c2ccccc2SCCCC[C@H](N)C(=O)N1 [Ex. 116, (13S,16R)-13-amino-16-methyl-18-oxa-8-thia-15-azatricyclo[17.3.1.0^2,7]tricosa-1(23),2,4,6,19,21-hexaen-14-one] |  | 15.4 µM | 49% |  |
| C[C@@H]1COc2cccc(c2)-c2ccccc2SCCCC[C@H](NC(=O)CN2CCCC2)C(=O)N1 [Ex. 119, N-[(13S,16R)-16-methyl-14-oxo-18-oxa-8-thia-15-azatricyclo[17.3.1.0^2,7]tricosa-1(23),2,4,6,19,21-hexaen-13-yl]-2-(1-pyrrolidinyl)acetamide] |  | 14.2 µM | 47% |  |
| C[C@@H]1COc2ccccc2-c2cncc(c2)SCCCC[C@H](N)C(=O)N1 [Ex. 144, (10R,13S)-13-amino-10-methyl-8-oxa-18-thia-11,21-diazatricyclo[17.3.1.0^2,7]tricosa-1(23),2,4,6,19,21-hexaen-12-one] |  | 40.9 µM | 41% |  |
| O=C(Cn1ccnc1)N[C@H]1C[C@H]2COc3cccc(c3)-c3ccccc3C(=O)NCC[C@@H](NC(=O)Cc3cccc4ccccc34)C(=O)N2C1 [Ex. 332, 2-(1H-imidazol-1-yl)-N-[(12R,16S,18S)-12-{[2-(1-naphthyl)acetyl]amino}-8,13-dioxo-20-oxa-9,14-diazatetracyclo[19.3.1.0^2,7.0^14,18]pentacosa-1(25),2,4,6,21,23-hexaen-16-yl]acetamide] | 29% |  |  |  |
| O=C(Cc1cccc2ccccc12)N[C@@H]1CCNC(=O)c2ccccc2-c2cccc(c2)OC[C@@H]2C[C@H](NC(=O)Nc3cccnc3)CN2C1=O [Ex. 333, N-[(12R,16S,18S)-8,13-dioxo-16-{[(3-pyridinylamino)carbonyl]amino}-20-oxa-9,14-diazatetracyclo[19.3.1.0^2,7.0^14,18]pentacosa-1(25),2,4,6,21,23-hexaen-12-yl]-2-(1-naphthyl)acetamide] | 35% |  |  |  |
| O=C(CN1CCCC1)N[C@H]1C[C@H]2COc3cccc(c3)-c3ccccc3C(=O)NCC[C@@H](NC(=O)Cc3cccc(Cl)c3)C(=O)N2C1 [Ex. 334, 2-(3-chlorophenyl)-N-[(12R,16S,18S)-8,13-dioxo-16-{[2-(1-pyrrolidinyl)acetyl]amino}-20-oxa-9,14-diazatetracyclo[19.3.1.0^2,7.0^14,18]pentacosa-1(25),2,4,6,21,23-hexaen-12-yl]acetamide] | 40% |  |  |  |
| O=C(CN1CCCC1)N[C@H]1C[C@H]2COc3cccc(c3)-c3ccccc3C(=O)NCC[C@@H](NC(=O)CC3CCCCC3)C(=O)N2C1 [Ex. 335, 2-cyclohexyl-N-[(12R,16S,18S)-8,13-dioxo-16-{[2-(1-pyrrolidinyl)acetyl]amino}-20-oxa-9,14-diazatetracyclo[19.3.1.0^2,7.0^14,18]pentacosa-1(25),2,4,6,21,23-hexaen-12-yl]acetamide] | 34% |  |  |  |
| O=C(CN1CCCC1)N[C@H]1C[C@H]2COc3cccc(c3)-c3ccccc3C(=O)NCC[C@@H](NC(=O)Nc3cccc4ccccc34)C(=O)N2C1 [Ex. 336, N-[(12R,16S,18S)-12-{[(1-naphthylamino)carbonyl]amino}-8,13-dioxo-20-oxa-9,14-diazatetracyclo[19.3.1.0^2,7.0^14,18]pentacosa-1(25),2,4,6,21,23-hexaen-16-yl]-2-(1-pyrrolidinyl)acetamide] | 48% |  |  | IC50 [1]: 8.2 µM |
